This is an account of results in PMC8645997, “Population Pharmacokinetics of Polymyxin B in Obese Patients for Resistant Gram-Negative Infections” (Frontiers in Pharmacology, 2021).

Where a SMILES comes first, the peptide text is derived from it. Bridges are numbered along the chain shown (N, C = ends). [ ]: non-standard residue; d: D form. The star is where a group is joined. X1 = CC[C@H](C)CCCCC(=O)*; Dab = NCC[C@H](N)C(=O)O

Data set [1] is described as follows: Population PK modeling of polymyxin B plasma concentrations in obese patients (two-compartment model, Phoenix NLME). It is filed as in vivo, human. On the procedure: This retrospective observational study was performed in the First Affiliated Hospital of Zhengzhou University between April 2018 and March 2021. The inclusion criteria for subjects were as follows: 1) patients ≥18 years old; 2) body mass index (BMI) ≥ 30; 3) patients had received intravenous polymyxin B (sulfate; polymyxin B for injection, Shanghai First Biochemical Pharmaceutical Co., Ltd.) for MDR Gram-negative infections; 4) blood sampling at steady state for therapeutic drug monitoring (TDM) was available. Subjects were excluded if 1) patients with continuous renal replacement therapy (CRRT) or extracorporeal membrane oxygenation (ECMO); 2) concentrations were below the lower limit of quantitation. The study protocols were approved by Zhengzhou University Medical Research and Ethics Committee (2021-KY-0441).
Polymyxin B was given to all patients empirically with a 100–200 mg loading dose and a 50–100 mg maintenance dose twice daily. The routine infusion time was at least 1 hour. Polymyxin B treatment, including dosage, infusion time, and treatment course, was determined by their medical teams. Sampling procedures included the following two categories.
From April 2018 to May 2019, 4-7 blood samples (mainly C0h, C1h, C1.5h, C2h, C4h, C6h, and C8h) were collected on day 4 to calculate the area under the concentration across 12 h at steady state (AUCss,12h). From June 2019 to March 2021, according to our previous study, a 2-point model using the limited sampling strategy was a practical approach to estimating polymyxin B AUCss,12h. Therefore, two blood samples (C0h and C2h) were collected. The infusion time was 1 hour ([Wang et al., 2020c]).
Blood samples were immediately centrifuged at 3,500 × g for 10 min. The supernatant was collected and then stored at −80°C until analysis. Polymyxin B concentrations (i.e., the polymyxin B1 concentration plus the polymyxin B2 concentration) were analyzed using a validated high-performance liquid chromatography-mass spectrometry method published by our laboratory ([Wang et al., 2020b]). As previously reported, the assay was linear over 0.2–10.0 μg/ml for polymyxin B1 and 0.05–2.5 μg/ml for polymyxin B2. The intra- and inter-batch assay precision (RSD) ranged from 0 to 13.93% for quality control samples, and their corresponding accuracy (% relative error) ranged from −11.56 to 11.13% ([Wang et al., 2020b]). Since polymyxin B1 and B2 had similar structures, molecular weight, pharmacological activities, and pharmacokinetic characteristics, the plasma concentration of polymyxin B was summed to derive the total polymyxin B1 and B2 concentrations ([Tam et al., 2011]; [Manchandani et al., 2016]).
Population PK modeling process was performed with the Phoenix® NLME software (v7.0, Pharsight, Mountain View, CA, USA). In brief, different PK models (one-, two-, or three-compartment models) were compared using the first-order conditional estimation-extended least-squares (FOCE ELS) method. The inter-individual variability (IIV) of PK parameters was assumed by additive, proportional, or mixed (additive plus proportional) models. The coefficient of variation (CV), the distribution of residuals in diagnostic plots, and the likelihood ratio test (-2 loglikelihood; -2LL) were used to evaluate the model. Following the basic structural modeling step, a stepwise process was used to consider several covariates, including age, TBW, BMI, IBW, ABW, sex, SOFA score, CrCL, adjusted CrCL, ideal CrCL, serum creatinine, and GFR. A drop >6.63 (p = 0.01) of objective function value (OFV; -2LL) for forward addition and an increase of OFV >10.83 (p = 0.001) for backward elimination were the inclusion criteria for covariates. After covariate selection, based on the scatter plot and ΔOFV (a drop of OFV >6.63), the relevant correlation between random effects was also explored.
For model evaluation, the goodness-of-fit (GOF) plots were used to evaluate the reliability of the final model. […]

The conditions of data set [2]: cited from earlier work. The source says:
As a weight-based dosing antibiotic with a narrow therapeutic window, polymyxin B regimen in obese patients is particularly concerning. The present study developed a two-compartment model to describe the population PK profile of polymyxin B in obese patients. […] In terms of V and V2 estimates, the values varied widely between studies ([Avedissian et al., 2019]). Compared with the PK parameters reported by our group and Sandri et al, the typical V value (11.24 L, Table 2) was higher than thos ... || Obesity can cause related pathophysiological changes that could theoretically alter the PK characteristic of drugs, such as increased Vd, altered hepatic metabolism, renal CL, and protein binding. An understanding of how the Vd of a drug changes in obesity is critical because this parameter determines loading-dose selection ([Hanley et al., 2010]). Vd is affected by physicochemical property (lipophilicity or hydrophilicity), plasma protein binding rate, and tissue blood flow ([Al-Dorzi et al., 2014]; [Polso et al., 2014]). Hydrophilic drugs typically have a low Vd, poor tissue penetration, les ...

The conditions of data set [3]: intermediate to high protein binding; ref Sandri et al., 2013; Abodakpi et al., 2015; Avedissian et al., 2019; cited from earlier work. An excerpt: Obesity can cause related pathophysiological changes that could theoretically alter the PK characteristic of drugs, such as increased Vd, altered hepatic metabolism, renal CL, and protein binding. An understanding of how the Vd of a drug changes in obesity is critical because this parameter determines loading-dose selection ([Hanley et al., 2010]). Vd is affected by physicochemical property (lipophilicity or hydrophilicity), plasma protein binding rate, and tissue blood flow ([Al-Dorzi et al., 2014]; [Polso et al., 2014]). Hydrophilic drugs typically have a low Vd, poor tissue penetration, les ...

The conditions of data set [4]: daily dose ≥250 mg; 151 patients; 95% CI 1.15–16.25, p = 0.03; ref Nelson et al., 2015; cited from earlier work. On the procedure:
From a toxicology perspective, the use of TBW-based dosing in obese patients can lead to polymyxin B overexposure and risk of acute kidney injury (AKI). In a retrospective study of 151 patients, Nelson et al. discovered that a daily dose ≥250 mg was an independent predictor of nephrotoxicity (OR 4.32, 95% CI 1.15–16.25, p = 0.03) in multivariate analysis ([Nelson et al., 2015]). […] These studies raised an important point abo ...

[5] abbreviates: obese patients, n = 26, iv, steady state.

As a reminder, the Vd is a proportionality between amount in the body and measured concentration, not a real space. Regarding `CC[C@H](C)CCCCC(=O)N[C@@H](CCN)C(=O)N[C@H](C(=O)N[C@@H](CCN)C(=O)N[C@H]1CCNC(=O)[C@H]([C@@H](C)O)NC(=O)[C@H](CCN)NC(=O)[C@H](CCN)NC(=O)[C@H](CC(C)C)NC(=O)[C@@H](Cc2ccccc2)NC(=O)[C@H](CCN)NC1=O)[C@@H](C)O` [polymyxin B] (X1-[Dab]T[Dab][Dab][Dab][dF]L[Dab][Dab]T; lactam 4-C), in data set [1] (bootstrap, 1,000 samples), the “tvCL, bootstrap median” value was 2.73; the “tvQ, bootstrap median” value turned out to be 7.71; the “tvV2, bootstrap median” value is recorded as 40.46; the “tvV, bootstrap median” value was determined as 11.46. For the same compound, the “tvV, typical value of central compartment distribution volume (V), final model estimate” value in data set [1] (obese patients (BMI >=30), n = 26, 142 plasma concentrations, iv, steady state) is given as 11.24 L. Moreover, in data set [1] (setting [5]), the “tvCL, central compartment clearance, final model estimate” value is on record as 2.86 L/h; the “tvQ, inter-compartmental clearance, final model estimate” value is on record as 7.36; the “tvV2, peripheral compartment distribution volume, final model estimate” value is 39.70 L. For the same compound, the Vd in data set [2] (low to intermediate Vd, ref Sandri et al., 2013, Abodakpi et al., 2015, Avedissian et al., 2019) is 6.3 to 47.2 L. For the same compound, the “typical CL value, previous reports” value in data set [2] (previous reports, ref Avedissian et al., 2019) was 1.87 to 2.63 L/h. For the same compound, in data set [2] (ref Sandri et al., 2013, Wang et al., 2020c, 2021), the “V2 value, reported previously” value is 10.57 to 11.97 L. Also, the “typical V value, reported previously” value in data set [2] (reported by our group and Sandri et al, ref Sandri et al., 2013, Wang et al., 2020c, Wang et al., 2021) was 6.22 to 6.98 L. In addition, the protein binding in data set [3] is reported as 58–90%. Further, the “OR of nephrotoxicity (independent predictor, multivariate analysis)” value in data set [4] is reported as 4.32.
